Measured values as given in patent publication US20230381321A1, “CAMPTOTHECIN CONJUGATES” (priority 2022, published 2023).
Read-outs that look alike come from different tables or passages of the source.

Legend:
Type in all cases: cell-based
[1] = test system: non-small-cell lung cancer cells (Calu1); assay: In vitro potency (CellTiter-Glo, 96 h) on Calu1; settings: read-out: Calu1 IC50
Protocol: (§1) In vitro potency was assessed on multiple cancer cell lines. All cell lines were authenticated by STR profiling at IDEXX Bioresearch and cultured for no more than 2 months after resuscitation. Cells cultured in log-phase growth were seeded for 24 hours in 96-well plates containing […] RPMI 1640 supplemented with 20% FBS. Serial dilutions of antibody-drug conjugates in cell culture media were prepared at 4x working concentrations, and 50 μL of each dilution was added to the 96-well plates. Following addition of test articles, cells were incubated with test articles for 4 days at […]. After 96 hours, growth inhibition was assessed by CellTiterGlo® (Promega, Madison, WI) and luminescence was measured on a plate reader.
(§2) Cell viability was determined by CellTiter-Glo staining after 96h exposure to ADC. ND=Not Determined. In the following tables, “Ex_” refers to a drug linker number. For example, “Ag4-Ex_4a” refers to a conjugate of an Ag4 antibody with drug linker 4a.

[2] = test system: Hodgkin's lymphoma cells (L540cy); assay: In vitro potency (CellTiter-Glo, 96 h) on L540cy; settings: CPT free drugs, CellTiter-Glo after 96 h exposure, read-out: L540cy IC50
How it was run: (§3)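 Luminescent viability signal reports growth inhibition after continuous exposure of cells to serially diluted […]. Cells, grown in RPMI 1640 plus 20% FBS, had been plated in log phase one day before dosing.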

[3] = test system: renal carcinoma cells (786-O); assay: In vitro potency (CellTiter-Glo, 96 h) on 786-O; settings: CPT free drugs, CellTiter-Glo after 96 h exposure, read-out: 786-O IC50
How it was run: as §3

[4] = test system: melanoma cells (A2058); assay: In vitro potency (CellTiter-Glo, 96 h) on A2058; settings: CPT free drugs, CellTiter-Glo after 96 h exposure, read-out: A2058 IC50
Protocol: as §1, §2

[5] = test system: anaplastic large cell lymphoma cells (Karpas299); assay: In vitro potency (CellTiter-Glo, 96 h) on Karpas299; settings: CPT free drugs, CellTiter-Glo after 96 h exposure, read-out: Karpas299 IC50
How it was run: as §3

[6] = test system: acute myeloid leukemia cells (MOLM-13); assay: In vitro potency (CellTiter-Glo, 96 h) on MOLM-13; settings: read-out: MOLM-13 IC50
How it was run: as §3

[7] = test system: pancreatic cancer cells (BxPC3); assay: In vitro potency (CellTiter-Glo, 96 h) on BxPC3; settings: CPT free drugs, CellTiter-Glo after 96 h exposure, read-out: BxPC3 IC50
How it was run: as §3

[8] = test system: breast cancer cells (MDA-MB-231); assay: In vitro potency (CellTiter-Glo, 96 h) on MDA-MB-231; settings: CPT free drugs, CellTiter-Glo after 96 h exposure, read-out: MDAMB 231 IC50
How it was run: as §3

[9] = In vitro potency (CellTiter-Glo, 96 h) on Ls174T; settings: CPT free drugs, CellTiter-Glo after 96 h exposure, read-out: Ls174T IC50
How it was run: as §3

[10] = test system: anaplastic large cell lymphoma cells (DEL); assay: In vitro potency (CellTiter-Glo, 96 h) on DEL; settings: 96 h, CPT free drugs; CellTiter-Glo after 96 h exposure; read-out: DEL IC50
How it was run: as §3

[11] = test system: B-lymphocyte cancer cells (SU-DHL4); assay: In vitro potency (CellTiter-Glo, 96 h) on SU-DHL4; settings: CPT free drugs, CellTiter-Glo after 96 h exposure, read-out: SU-DHL-4 IC50
How it was run: as §3

[12] = test system: anaplastic large cell lymphoma cells (DELBVR); assay: In vitro potency (CellTiter-Glo, 96 h) on DELBVR; settings: CPT free drugs, CellTiter-Glo after 96 h exposure, read-out: DELBVR IC50
How it was run: as §3

[13] = Homo sapiens, Calu-1, 96 h, CPT free drugs, CellTiter-Glo after 96 h exposure
[14] = Homo sapiens, MOLM-13, 96 h, CPT free drugs, CellTiter-Glo after 96 h exposure
[15] = CPT free drugs, CellTiter-Glo after 96 h exposure

SMILES	IC50 [1, 13] [nM]	IC50 ([2]; L540cy, 96 h) [nM]	IC50 ([3]; Homo sapiens, 786-0, 96 h) [nM]	IC50 ([4]; Homo sapiens, A2058, 96 h) [nM]	IC50 ([5]; Homo sapiens, KARPAS-299, 96 h) [nM]	IC50 [6, 14] [nM]	IC50 ([7]; Homo sapiens, BXPC-3, 96 h) [nM]	IC50 ([8]; Homo sapiens, MDA-MB-231, 96 h) [nM]	IC50 ([9]; Homo sapiens, LS174T) [nM]	IC50 [10] [nM]	IC50 ([11]; Homo sapiens, SU-DHL-4, 96 h) [nM]	IC50 ([12]; 96 h) [nM]	further results
CC[C@@]1(O)C(=O)OCc2c1cc1n(c2=O)Cc2c-1nc1cc(F)cc(Br)c1c2CN [Compound 2aw]	269	25	58	18	36	199	149	456	> 1000	15	22	15	
CC[C@@]1(O)C(=O)OCc2c1cc1n(c2=O)Cc2c-1nc1ccc3c(c1c2CN)SCC3 [Compound 2av]	25	5	22	4	26	236	34	9	11	5	8	4	
CC[C@@]1(O)C(=O)OCc2c1cc1n(c2=O)Cc2c-1nc1cc3c(cc1c2CNC(=O)OCc1ccc(NC(=O)[C@H](CCCCN)NC(=O)[C@@H](NC(=O)CCOCCOCCOCCOCCNC(=O)CCN2C(=O)C=CC2=O)C(C)C)cc1)CCO3 [Compound 14, [4-[[(2S)-6-amino-2-[[(2S)-2-[3-[2-[2-[2-[2-[3-(2,5-dioxopyrrol-1-yl)propanoylamino]ethoxy]ethoxy]ethoxy]ethoxy]propanoylamino]-3-methyl-butanoyl]amino]hexanoyl]amino]phenyl]methyl N-[[(5S)-5-ethyl-5-hydroxy-6,10-dioxo-7,20-dioxa-11,24-diazahexacyclo[11.11.0.02,11.04,9.015,23.017,21]tetracosa-1(13),2,4(9),14,16,21,23-heptaen-14-yl]methyl]carbamate;2,2,2-trifluoroacetic acid]													IC50 [1, 15]: 9 nM; IC50 [2]: 2 nM; IC50 [3]: 4 nM; IC50 [4]: 2 nM; IC50 [5]: 4 nM; IC50 [6, 15]: 22 nM; IC50 [7]: 6 nM; IC50 [8]: 5 nM; IC50 [9]: 3 nM; IC50 [11]: 1 nM; IC50 [12]: 1 nM
C=C(C)c1ccc2nc3c(c(CN)c2c1)Cn1c-3cc2c(c1=O)COC(=O)[C@]2(O)CC [Compound 33a]	120	21	34	18	28	258	50	36	18	7	14	12	
CC[C@@]1(O)C(=O)OCc2c1cc1n(c2=O)Cc2c-1nc1cc3c(cc1c2CN)CC=C3 [Compound 5]		9	16	7	10		40	218	> 1000	4	7	4	IC50 ([1]; Homo sapiens, Calu-1, 96 h): 129 nM; IC50 ([6]; Homo sapiens, MOLM-13, 96 h): 258 nM
CC[C@@]1(O)C(=O)OCc2c1cc1n(c2=O)Cc2c-1nc1cc(F)c(C)c(C3=CCCCC3)c1c2CN [Compound 6b]	32	13	23	15	14	9	18	35	85	5	9	5	
